Test results taken from patent publication US10856562B2, “Flavor composition and edible compositions containing same” (MARS, INCORPORATED, priority 2013, dated 2020).
Entries after “also recorded” stand apart in the source; their conditions may differ. Square brackets hold non-standard residues; d marks the D form. Ends that are not written are not given here. pGlu = O=C1CC[C@@H](C(=O)O)N1

Key:
panelists [1] = test: Degree of Difference (DOD) of test rice from control rice; assay type: in vivo, human; design: Degree of Difference in rice: scale not given here; conditions: for Degree of Difference in rice: difference from Control; for Degree of Difference in rice / DOD from Control: rice; for DOD from Control: scale 0.0 to 10.0
From the text: The present example describes the evaluation of the descriptive profile of pGlu-Cys (identified as “FE-35”), pGlu-Cys-Gly (identified as “FE-36”), pGlu-Cys-Cys (identified as “FE-37”), pGlu-Cys-Val (identified as “FE-38”) and pGlu-Val-Cys (identified as “UE-30”) peptides of the present application. An objective of the study was to understand the efficacy of flavor enhancer compounds FE-35, FE-36, FE-37, FE-38 and UE-30 in increasing concentrations both in solution and in rice, and to determine a Degree of Difference (DOD) score between a control rice sample (which includes NaCl, and no flavor composition peptide) and the test rice samples (with added flavor composition peptides at increasing concentrations).

panelists [2] = test: Return to baseline protocol: salt reference re-tasted at 1 minute intervals; assay type: in vivo, human; conditions: for Time needed to return to baseline as the concentration increases: 0.1 to 40.0/50.0 ppb
Procedure: After evaluating the sample for salt and other perceptions (step 3 above), each panelist re-tasted the salt reference (5.0 intensity) at 1 minute intervals until their perception of the saltiness intensity of the reference returned to 5.0. Each panelist recorded salt intensity at each interval and took qualitative notes on other perceptions seen in aftertaste. Attribute Perception Protocol • The panelists evaluated each sample using the following procedure • Descriptive Profiles (flavor and chemical feeling factors) of 5 levels of salt enhancing solutions • Individual data was collected for the flavor and chemical feeling factors of the product in-mouth • Increased Salt Perception Protocol • Each panelist tasted salt 5 reference (0.35% salt solution)—to ground themselves on salt intensity of 5.0. • Each panelist tasted the test sample (0.1 ppb, 0.5 ppb, 1.0 ppb, 10.0 ppb or 40.0/50.0 ppb all in 0.2% NaCl solution: only one per session) • Each panelist then re-tasted the salt 5 reference and rated it for salt intensity as well as any other basic taste, chemical feeling factor, or aromatic perceived. This captured any increased salt perception indicated by the test sample as well as any other perceptions present. • Return to Baseline Protocol • After evaluating the sample for salt & other perceptions, panelists re-tasted the salt 5 reference at 1 minute intervals until their perception of the salt 5 saltiness intensity had returned to 5.0. Each panelist recorded their salt intensity at each interval and took qualitative notes on other perceptions seen in aftertaste. Sample Preparation

Substance	Degree of Difference in rice (panelists [1]; 1.0 ppb)	Degree of Difference in rice (panelists [1]; 10.0 ppb)	Degree of Difference in rice (panelists [1]; 100.0 ppb)	DOD from Control (panelists [1]; 1.0 ppb (5 ppm))	DOD from Control (panelists [1]; 10.0 ppb (50 ppm))	DOD from Control (panelists [1]; 100 ppb (50 ppm))	Mean time needed to return to baseline (panelists [2]; 0.1 ppb in 0.2% NaCl)	Mean time needed to return to baseline (min.) (panelists [2]; 0.1 ppb in 0.2% NaCl)	Time needed to return to baseline as the concentration increases (panelists [2])	Mean time needed to return to baseline (panelists [2]; 0.5 ppb in 0.2% NaCl)	Mean time needed to return to baseline (min.) (panelists [2]; 0.5 ppb in 0.2% NaCl)	Mean time needed to return to baseline (panelists [2]; 1.0 ppb in 0.2% NaCl)	Mean time needed to return to baseline (min.) (panelists [2]; 1.0 ppb in 0.2% NaCl)	Mean time needed to return to baseline (panelists [2]; 10.0 ppb in 0.2% NaCl)	Mean time needed to return to baseline (min.) (panelists [2]; 10.0 ppb in 0.2% NaCl)	other results
[pGlu]-Cys [FE-35]	3.8	5.0	5.0	3.8	5.0	5.0	–	–	–	–	–	–	–	–	–	Whether consumers notice a difference between the Control and test rice (DOD) (panelists [1]; 1 ppb): Consumers will likely not notice the difference; Whether consumers notice a difference between the Control and test rice (DOD) (panelists [1]; 10 and 100 ppb): Consumers will likely notice a difference
[pGlu]-Cys-Cys (cysteine pairing not given here) [FE-37]	4.0	4.5	5.0	4.0	4.5	5.0	–	–	–	–	–	–	–	–	–	Whether consumers notice a difference between the Control and test rice (DOD) (panelists [1]; 1 and 10 ppb): Consumers will may or may not notice a difference; Whether consumers notice a difference between the Control and test rice (DOD) (panelists [1]; 10 ppb): Consumers may or may not notice a difference; Whether consumers notice a difference between the Control and test rice (DOD) (panelists [1]; 100 ppb): Consumers will likely notice a difference
[pGlu]-Cys-Gly [FE-36]	5.0	5.0	5.5	5.0	5.0	5.5	–	–	–	–	–	–	–	–	–	Whether consumers notice a difference between the Control and test rice (DOD) (panelists [1]; all concentrations): Consumers will likely notice a difference
[pGlu]-Cys-Val [FE-38]	4.5	5.0	4.5	4.5	5.0	4.5	–	–	–	–	–	–	–	–	–	Whether consumers notice a difference between the Control and test rice (DOD) (panelists [1]; 1 and 100 ppb): Consumers may or may not notice a difference; Whether consumers notice a difference between the Control and test rice (DOD) (panelists [1]; 10 ppb): Consumers will likely notice a difference
[pGlu]-Val [SE-14]	–	–	–	–	–	–	4.6 min	4.6 min	increases slightly overall; also recorded: slight increase overall	4.6 min	4.6 min	3.9 min	3.9 min	5.8 min	5.8 min	Mean time needed to return to baseline (panelists [2]; 50.0 ppb in 0.2% NaCl): 6.6 min; Mean time needed to return to baseline (min.) (panelists [2]; 50.0 ppb in 0.2% NaCl): 6.6 min
[pGlu]-Val-Cys [UE-30]	4.5	5.0	5.0	4.5	5.0	5.0	–	–	–	–	–	–	–	–	–	Whether consumers notice a difference between the Control and test rice (DOD) (panelists [1]; 1 ppb): Consumers may or may not notice a difference; Whether consumers notice a difference between the Control and test rice (DOD) (panelists [1]; 10 and 100 ppb): Consumers will likely notice a difference
[pGlu]-Val-Leu [SE-13]	–	–	–	–	–	–	7.6 min	7.6 min	increases notably from 0.1 ppb to 0.5 ppb and from 10.0 ppb to 40.0 ppb; also recorded: does not necessarily increase	9.5 min	9.5 min	8.7 min	8.7 min	8.6 min	8.6 min	Time needed to return to baseline as the concentration increases (panelists [2]; listed as pGlu-Val-Leu): did not necessarily increase; Mean time needed to return to baseline (panelists [2]; 40.0 ppb in 0.2% NaCl): 13.1 min; Mean time needed to return to baseline (min.) (panelists [2]; 40.0 ppb in 0.2% NaCl): 13.1 min; Time needed to return to baseline, comparison of SE-13, SE-14 and SE-17 (panelists [2]; overall): greatest
[pGlu]-Val-Val [SE-17]	–	–	–	–	–	–	3.4 min	3.4 min	No definitive trends are seen; also recorded: no definitive trend	5.6 min	5.6 min	5.0 min	5.0 min	5.0 min	5.0 min	Mean time needed to return to baseline (panelists [2]; 50.0 ppb in 0.2% NaCl): 4.1 min; Mean time needed to return to baseline (min.) (panelists [2]; 50.0 ppb in 0.2% NaCl): 4.1 min
